Experimental findings from patent US9902733B2, “Furopyridines as inhibitors of protein kinases” (MASARYKOVA UNIVERZITA, priority 2014, dated 2018) are described below.

As usually defined, the IC50 is the concentration that inhibits the measured activity by half.

Common to all, as to type: biochemical
In one assay the target is T1, CLK4 (h) (Homo sapiens, UniProt Q9HAZ1).
T1 construct: purchased Merck Millipore (KinaseProfiler service)
In words: CLK4 KinaseProfiler radiometric protein kinase assay. The settings on record: 15 μM ATP, 40 minutes at room temperature. How it is done: (§1) In vitro essays were performed by the company Merck Millipore in their KinaseProfiler radiometric protein kinase assay as paid commercial service. The compounds IC50 values for inhibition of individual protein kinases were determined. Dose-response curves were plotted from inhibition data generated, each in duplicate, from 10 point serial dilutions of inhibitory compounds. Concentration of compound was plotted against % kinase activity. To generate IC50 values, the dose-response curves were fitted to a standard sigmoidal curve and IC50 values were derived by standard nonlinear regression analysis.
(§2) All tested compounds were prepared in 100% DMSO to final assay concentrations either 0.5 mM (for the concentration row A, see below) or 0.05 mM (for the concentration row B). This working stock of the compound was added to the assay well as the first component in the reaction, followed by the remaining components as detailed below. The stock solution was added to the individual assay wells in such amounts that the concentrations of the compound were either in the row A (0.001 μM, 0.003 μM, 0.01 μM, 0.03 μM, 0.1 μM, 0.3 μM, 1.0 μM, 3.0 μM, and 10.0 μM) or in the row B (0.0001 μM, 0.0003 μM, 0.001 μM, 0.003 μM, 0.01 μM, 0.03 μM, 0.1 μM, 0.3 μM, and 1.0 μM). There was no pre-incubation step between the compound and the kinase prior to initiation of the reaction.
(§3) The positive control wells contained all components of the reaction, except the compound of interest; however, DMSO (at a final concentration of 2%) was included in these wells to control for solvent effects. The blank wells contained all components of the reaction, with staurosporine as a reference inhibitor replacing the compound of interest. This abolished kinase activity and established the base-line (0% kinase activity remaining).
CLK4 (h) was diluted in the buffer (20 mM MOPS, 1 mM EDTA, 0.01% Brij-35, 5% Glycerol, 0.1% β-mercaptoethanol, 1 mg/mL BSAs) to the concentration of 1.01 mg/mL prior to addition to the reaction mix.
(§4) The above stock solution of CLK4(h) was added to a mixture containing 8 mM MOPS pH 7.0, 0.2 mM EDTA, and 200 μM […](p) EDEEE in such amount that the resulting concentration of CLK4(h) was 140.8 nM. This mixture was added to the stock solution of the tested compound. The reaction was initiated by the addition of the MgATP mix in such amount that the resulting concentration of Mg acetate in the reaction mixture was 10 mM and [γ-^33P-ATP] (specific activity approx. 500 cpm/pmol) was 15 μM. After incubation for 40 minutes at room temperature, the reaction was stopped by the addition of 3% phosphoric acid solution. 10 μL of the reaction was then spotted onto a P30 filtermat and washed three times for 5 minutes in 75 mM phosphoric acid and once in methanol prior to drying and scintillation counting.

The next assay has as its target T2, TRKA(h) (Homo sapiens, UniProt P04629).
T2 construct: purchased Merck Millipore (KinaseProfiler service)
In words: TRKA KinaseProfiler radiometric protein kinase assay. The settings on record: 120 μM ATP, 40 minutes at room temperature. How it is done: as §1, §2, §3
TRKA(h) was diluted in the buffer (20 mM MOPS, 1 mM EDTA, 0.01% Brij-35, 5% Glycerol, 0.1% β-mercaptoethanol, 1 mg/mL BSAs) to the concentration of 1.01 mg/mL prior to addition to the reaction mix.
(§5) The above stock solution of TRKA(h) was added to a mixture containing 8 mM MOPS pH 7.0, 0.2 mM EDTA, and 250 μM KKKSPGEYVNIEFG, in such amount that the resulting concentration of TRKA(h) was 28.2 nM. This mixture was added to the stock solution of the tested compound. The reaction was initiated by the addition of the MgATP mix in such amount that the resulting concentration of Mg acetate in the reaction mixture was 10 mM and [γ-^33P-ATP] (specific activity approx. 500 cpm/pmol) was 120 μM. After incubation for 40 minutes at room temperature, the reaction was stopped by the addition of 3% phosphoric acid solution. […]

A further assay has as its target T3, FLT3(h) (Homo sapiens, UniProt P36888).
T3 construct: purchased Merck Millipore (KinaseProfiler service)
T3 sequence (P36888 27-993): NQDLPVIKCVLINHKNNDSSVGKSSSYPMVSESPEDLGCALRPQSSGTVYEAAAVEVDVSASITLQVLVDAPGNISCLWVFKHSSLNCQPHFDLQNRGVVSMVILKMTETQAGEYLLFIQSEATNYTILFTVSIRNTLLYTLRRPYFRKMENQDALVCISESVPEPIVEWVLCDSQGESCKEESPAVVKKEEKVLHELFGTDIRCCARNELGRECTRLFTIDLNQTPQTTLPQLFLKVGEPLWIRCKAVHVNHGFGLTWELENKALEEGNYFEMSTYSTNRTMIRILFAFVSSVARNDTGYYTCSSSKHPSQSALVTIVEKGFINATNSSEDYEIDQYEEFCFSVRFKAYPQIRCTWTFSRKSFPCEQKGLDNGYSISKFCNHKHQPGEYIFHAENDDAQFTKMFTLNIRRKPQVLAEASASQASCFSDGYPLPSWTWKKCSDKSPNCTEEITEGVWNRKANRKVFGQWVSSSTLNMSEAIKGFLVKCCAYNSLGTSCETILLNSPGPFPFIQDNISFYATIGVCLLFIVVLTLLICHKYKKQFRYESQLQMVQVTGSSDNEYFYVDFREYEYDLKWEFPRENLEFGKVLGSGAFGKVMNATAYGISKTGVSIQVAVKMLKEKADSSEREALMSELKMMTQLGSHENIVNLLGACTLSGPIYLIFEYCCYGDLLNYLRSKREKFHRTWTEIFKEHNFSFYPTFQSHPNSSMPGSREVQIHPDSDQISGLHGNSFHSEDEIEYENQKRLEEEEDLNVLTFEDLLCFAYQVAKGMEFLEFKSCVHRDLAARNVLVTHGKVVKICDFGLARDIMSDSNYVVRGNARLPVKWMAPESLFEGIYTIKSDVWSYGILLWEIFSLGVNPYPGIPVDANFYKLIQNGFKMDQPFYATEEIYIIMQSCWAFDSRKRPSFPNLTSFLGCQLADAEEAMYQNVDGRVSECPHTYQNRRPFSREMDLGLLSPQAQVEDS
In words: FLT3 KinaseProfiler radiometric protein kinase assay. The settings on record: 200 μM ATP, 40 minutes at room temperature. The procedure: as §1, §2, §3
FLT3(h) was diluted in the buffer (20 mM MOPS, 1 mM EDTA, 0.01% Brij-35, 5% Glycerol, 0.1% β-mercaptoethanol, 1 mg/mL BSAs) to the concentration of 1.01 mg/mL prior to addition to the reaction mix.
The above stock solution of Flt3(h) was added to a mixture containing 8 mM MOPS pH 7.0, 0.2 mM EDTA, and 50 μM EAIYAAPFAKKK, in such amount that the resulting concentration of FLT3(h) was 28.3 nM. This mixture was added to the stock solution of the tested compound. The reaction was initiated by the addition of the MgATP mix in such amount that the resulting concentration of Mg acetate in the reaction mixture was 10 mM and [γ-^33P-ATP] (specific activity approx. 500 cpm/pmol) was 200 μM. After incubation for 40 minutes at room temperature, the reaction was stopped by the addition of 3% phosphoric acid solution. 10 μL of the reaction was then spotted onto a P30 filtermat and washed three times for 5 minutes in 75 mM phosphoric acid and once in methanol prior to drying and scintillation counting.

The next assay addresses T4, CLK2 (h) (Homo sapiens, UniProt P49760).
T4 construct: purchased Merck Millipore (KinaseProfiler service)
In words: CLK2 KinaseProfiler radiometric protein kinase assay. The settings on record: radiometric, 15 μM ATP, 40 minutes at room temperature; read-out: CLK2 IC50. How it is done:
as §1, §2, §3
CLK2 (h) was diluted in the buffer (20 mM MOPS (3-(N-morpholino)propanesulfonic acid), 1 mM EDTA (ethylendiaminotetraacetic acid), 0.01% Brij-35 (detergent), 5% Glycerol, 0.1% β-mercaptoethanol, 1 mg/mL BSAs) to the concentration of 1.01 mg/mL prior to addition to the reaction mix.
as §4, with “CLK2(h)” for “CLK4(h)”, “20” for “200”, “2.1” for “140.8”

The target in a further assay is T5, HIPK2(h) (Homo sapiens, UniProt Q9H2X6).
T5 construct: purchased Merck Millipore (KinaseProfiler service)
T5 sequence (Q9H2X6 whole entry): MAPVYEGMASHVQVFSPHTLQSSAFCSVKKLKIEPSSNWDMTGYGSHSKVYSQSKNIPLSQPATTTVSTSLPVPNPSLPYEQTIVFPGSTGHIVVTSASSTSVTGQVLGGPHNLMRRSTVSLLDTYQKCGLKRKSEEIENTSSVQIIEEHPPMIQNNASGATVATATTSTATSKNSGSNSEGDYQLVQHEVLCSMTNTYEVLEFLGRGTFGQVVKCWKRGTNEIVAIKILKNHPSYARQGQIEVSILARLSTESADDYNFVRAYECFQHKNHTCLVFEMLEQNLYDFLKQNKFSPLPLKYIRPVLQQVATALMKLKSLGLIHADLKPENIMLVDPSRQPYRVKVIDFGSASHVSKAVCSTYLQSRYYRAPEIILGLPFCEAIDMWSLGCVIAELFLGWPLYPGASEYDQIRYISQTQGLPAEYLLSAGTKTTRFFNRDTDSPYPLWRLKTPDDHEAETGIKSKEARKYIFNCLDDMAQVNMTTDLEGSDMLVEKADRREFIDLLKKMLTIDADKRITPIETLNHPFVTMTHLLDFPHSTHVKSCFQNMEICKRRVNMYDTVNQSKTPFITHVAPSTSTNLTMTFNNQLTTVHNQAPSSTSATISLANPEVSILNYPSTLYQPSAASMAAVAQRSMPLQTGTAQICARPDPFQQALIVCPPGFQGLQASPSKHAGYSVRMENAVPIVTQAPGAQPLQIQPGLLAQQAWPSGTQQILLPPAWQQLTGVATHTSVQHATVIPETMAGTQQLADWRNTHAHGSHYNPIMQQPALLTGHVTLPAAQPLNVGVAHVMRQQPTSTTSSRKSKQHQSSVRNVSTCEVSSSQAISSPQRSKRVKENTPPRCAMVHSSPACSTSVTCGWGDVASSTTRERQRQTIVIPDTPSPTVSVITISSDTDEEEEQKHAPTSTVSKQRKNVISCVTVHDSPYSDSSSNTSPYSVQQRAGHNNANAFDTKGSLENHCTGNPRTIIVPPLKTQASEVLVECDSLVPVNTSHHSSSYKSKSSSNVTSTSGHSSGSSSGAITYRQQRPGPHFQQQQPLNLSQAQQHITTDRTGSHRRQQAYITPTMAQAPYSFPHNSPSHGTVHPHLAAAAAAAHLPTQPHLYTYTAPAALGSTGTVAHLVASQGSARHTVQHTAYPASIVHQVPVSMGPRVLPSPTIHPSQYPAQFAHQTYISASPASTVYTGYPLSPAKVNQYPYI
In words: HIPK2 KinaseProfiler radiometric protein kinase assay. The settings on record: 10 μM ATP, 40 minutes at room temperature. The procedure:
as §1, §2, §3
HIPK2(h) was diluted in the buffer (20 mM MOPS, 1 mM EDTA, 0.01% Brij-35, 5% Glycerol, 0.1% β-mercaptoethanol, 1 mg/mL BSAs) to the concentration of 1.01 mg/mL prior to addition to the reaction mix.
(§6) The above stock solution of HIPK2(h) was added to a mixture containing 8 mM MOPS pH 7.0, 0.2 mM EDTA, and 0.33 mg/mL myelin basic protein in such amount that the resulting concentration of HIPK2(h) was 1.4 nM. This mixture was added to the stock solution of the tested compound. The reaction was initiated by the addition of the MgATP mix in such amount that the resulting concentration of Mg acetate in the reaction mixture was 10 mM and [γ-^33P-ATP] (specific activity approx. 500 cpm/pmol) was 10 μM. After incubation for 40 minutes at room temperature, the reaction was stopped by the addition of 3% phosphoric acid solution. 10 μL of the reaction was then spotted onto a P30 filtermat and washed three times for 5 minutes in 75 mM phosphoric acid and once in methanol prior to drying and scintillation counting.

In the next assay the target is T6, HIPK1(h) (Homo sapiens, UniProt Q86Z02).
T6 construct: purchased Merck Millipore (KinaseProfiler service)
T6 sequence (Q86Z02 whole entry): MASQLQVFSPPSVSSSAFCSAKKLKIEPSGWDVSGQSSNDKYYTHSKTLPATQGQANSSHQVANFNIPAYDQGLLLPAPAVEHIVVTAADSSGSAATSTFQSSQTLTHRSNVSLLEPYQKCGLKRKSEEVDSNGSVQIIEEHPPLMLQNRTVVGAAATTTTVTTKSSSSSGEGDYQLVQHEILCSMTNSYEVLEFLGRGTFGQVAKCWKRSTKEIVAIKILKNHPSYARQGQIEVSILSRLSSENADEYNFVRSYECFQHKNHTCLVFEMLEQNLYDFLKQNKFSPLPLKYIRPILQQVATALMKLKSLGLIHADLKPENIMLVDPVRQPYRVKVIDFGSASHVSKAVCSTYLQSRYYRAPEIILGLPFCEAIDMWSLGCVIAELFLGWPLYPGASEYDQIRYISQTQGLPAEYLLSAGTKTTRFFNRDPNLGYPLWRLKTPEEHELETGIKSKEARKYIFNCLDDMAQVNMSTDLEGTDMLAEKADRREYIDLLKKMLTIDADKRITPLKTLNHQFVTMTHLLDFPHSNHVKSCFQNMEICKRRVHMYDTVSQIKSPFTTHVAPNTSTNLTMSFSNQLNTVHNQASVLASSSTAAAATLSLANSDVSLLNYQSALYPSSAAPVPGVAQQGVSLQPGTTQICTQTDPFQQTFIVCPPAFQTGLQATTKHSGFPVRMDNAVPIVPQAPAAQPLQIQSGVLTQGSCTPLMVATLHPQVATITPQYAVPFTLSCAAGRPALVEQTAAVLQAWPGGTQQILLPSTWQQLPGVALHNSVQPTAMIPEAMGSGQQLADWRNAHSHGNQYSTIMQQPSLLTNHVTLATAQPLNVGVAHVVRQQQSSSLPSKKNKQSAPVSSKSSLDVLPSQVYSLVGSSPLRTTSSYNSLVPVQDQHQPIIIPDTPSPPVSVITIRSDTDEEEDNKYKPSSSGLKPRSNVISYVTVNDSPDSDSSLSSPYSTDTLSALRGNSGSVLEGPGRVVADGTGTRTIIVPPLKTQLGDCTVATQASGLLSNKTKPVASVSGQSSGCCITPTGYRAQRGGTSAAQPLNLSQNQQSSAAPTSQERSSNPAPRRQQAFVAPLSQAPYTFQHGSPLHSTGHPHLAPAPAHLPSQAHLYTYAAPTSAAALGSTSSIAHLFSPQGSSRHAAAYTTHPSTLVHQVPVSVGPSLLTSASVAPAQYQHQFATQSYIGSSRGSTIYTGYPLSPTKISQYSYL
In words: HIPK1 KinaseProfiler radiometric protein kinase assay. The settings on record: 45 μM ATP, 40 minutes at room temperature. The procedure:
as §1, §2, §3
HIPK1(h) was diluted in the buffer (20 mM MOPS, 1 mM EDTA, 0.01% Brij-35, 5% Glycerol, 0.1% β-mercaptoethanol, 1 mg/mL BSAs) to the concentration of 1.01 mg/mL prior to addition to the reaction mix.
as §6, with “solution of HIPK1(h) was added” for “solution of HIPK2(h) was added”, “concentration of HIPK1(h) was 4.7” for “concentration of HIPK2(h) was 1.4”, “HIPK1(h) was 4.7 nM. This” for “HIPK2(h) was 1.4 nM. This”, “cpm/pmol) was 45 μM. After” for “cpm/pmol) was 10 μM. After”

A further assay concerns the target T7, HIPK3(h) (Homo sapiens, UniProt Q9H422).
T7 construct: purchased Merck Millipore (KinaseProfiler service)
In words: HIPK3 KinaseProfiler radiometric protein kinase assay. The settings on record: 15 μM ATP, 40 minutes at room temperature. The procedure:
as §1, §2, §3
HIPK3(h) was diluted in the buffer (20 mM MOPS, 1 mM EDTA, 0.01% Brij-35, 5% Glycerol, 0.1% β-mercaptoethanol, 1 mg/mL BSAs) to the concentration of 1.01 mg/mL prior to addition to the reaction mix.
as §5, with “HIPK3(h)” for “TRKA(h)”, “1.0 mg/mL myelin basic protein” for “250 μM KKKSPGEYVNIEFG,”, “6.4” for “28.2”, “15” for “120”

T1 sequence (Q9HAZ1 whole entry): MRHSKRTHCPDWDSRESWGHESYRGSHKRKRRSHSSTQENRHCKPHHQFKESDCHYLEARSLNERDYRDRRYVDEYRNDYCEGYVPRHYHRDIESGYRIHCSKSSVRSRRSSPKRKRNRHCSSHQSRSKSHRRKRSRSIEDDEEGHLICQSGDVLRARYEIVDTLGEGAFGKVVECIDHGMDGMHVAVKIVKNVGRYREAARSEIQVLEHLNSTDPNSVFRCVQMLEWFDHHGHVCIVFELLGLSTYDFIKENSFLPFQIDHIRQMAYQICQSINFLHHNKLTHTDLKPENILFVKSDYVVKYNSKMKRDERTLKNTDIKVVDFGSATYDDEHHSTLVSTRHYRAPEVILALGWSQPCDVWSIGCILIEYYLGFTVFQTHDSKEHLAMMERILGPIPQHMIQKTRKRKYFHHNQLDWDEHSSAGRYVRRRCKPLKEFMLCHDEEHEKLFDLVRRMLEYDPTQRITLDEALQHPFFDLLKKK
T2 sequence (P04629 33-796): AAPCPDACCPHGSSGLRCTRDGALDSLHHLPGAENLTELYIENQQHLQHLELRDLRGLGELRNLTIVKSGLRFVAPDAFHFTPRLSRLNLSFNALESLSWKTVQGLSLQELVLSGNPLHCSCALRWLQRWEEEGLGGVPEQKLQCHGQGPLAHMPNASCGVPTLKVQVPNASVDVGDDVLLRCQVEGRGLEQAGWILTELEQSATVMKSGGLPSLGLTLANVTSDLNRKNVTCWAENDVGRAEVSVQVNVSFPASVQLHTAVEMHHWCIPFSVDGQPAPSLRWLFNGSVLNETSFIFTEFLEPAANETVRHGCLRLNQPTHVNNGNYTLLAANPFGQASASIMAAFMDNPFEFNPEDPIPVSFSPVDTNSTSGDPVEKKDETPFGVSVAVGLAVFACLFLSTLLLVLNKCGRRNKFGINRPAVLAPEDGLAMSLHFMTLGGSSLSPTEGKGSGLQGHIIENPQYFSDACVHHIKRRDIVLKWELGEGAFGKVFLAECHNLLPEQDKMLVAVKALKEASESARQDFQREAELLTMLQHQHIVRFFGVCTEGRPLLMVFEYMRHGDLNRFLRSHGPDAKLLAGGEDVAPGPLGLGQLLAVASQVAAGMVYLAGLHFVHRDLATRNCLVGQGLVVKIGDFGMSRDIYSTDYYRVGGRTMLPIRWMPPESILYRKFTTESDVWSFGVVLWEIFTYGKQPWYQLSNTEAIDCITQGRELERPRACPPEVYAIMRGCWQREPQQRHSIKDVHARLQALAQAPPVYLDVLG
T4 sequence (P49760 whole entry): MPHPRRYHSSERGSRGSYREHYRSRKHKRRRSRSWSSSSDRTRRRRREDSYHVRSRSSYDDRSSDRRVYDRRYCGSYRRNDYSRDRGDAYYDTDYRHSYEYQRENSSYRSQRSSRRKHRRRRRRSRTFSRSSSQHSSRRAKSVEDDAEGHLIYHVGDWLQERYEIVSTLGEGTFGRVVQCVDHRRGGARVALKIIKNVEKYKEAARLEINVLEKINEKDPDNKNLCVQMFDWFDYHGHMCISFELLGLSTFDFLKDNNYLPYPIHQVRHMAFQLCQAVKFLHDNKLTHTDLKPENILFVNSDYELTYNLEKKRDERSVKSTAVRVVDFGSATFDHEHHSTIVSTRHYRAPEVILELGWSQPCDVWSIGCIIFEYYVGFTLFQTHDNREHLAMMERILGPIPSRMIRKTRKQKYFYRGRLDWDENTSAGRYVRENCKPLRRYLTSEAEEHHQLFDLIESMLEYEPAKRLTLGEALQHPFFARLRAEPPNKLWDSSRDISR

On to `c1ccc(Nc2ccc3occ(-c4ccccc4)c3n2)cc1` [Preparative Example 8E], for which the IC50 on CLK4 (h), at TRKA(h) and against FLT3(h) was less than 5 µM throughout.
`c1ccc(-c2coc3ccc(Nc4ccncc4)nc23)cc1` [Preparative Example 8D]: the half-maximal inhibitory concentration (IC50) on FLT3(h) was less than 5 µM.
Take `c1ccc(-c2coc3ccc(Nc4ccc(N5CCOCC5)cc4)nc23)cc1` [Preparative Example 8B]: the IC50 is less than 5 µM on TRKA(h), less than 1 µM on CLK2 (h) and less than 1 µM against FLT3(h).
For the compound `Cc1n[nH]c(C)c1-c1ccc2occ(-c3ccc4ccccc4c3)c2n1` [Preparative Example 7D], the IC50 against CLK4 (h) is less than 5 µM; against HIPK2(h) it was less than 1 µM; at HIPK1(h), less than 5 µM; at HIPK3(h), less than 5 µM; at CLK2 (h), less than 5 µM.
In the case of `CN1CCN(c2ccc(Nc3ccc4occ(-c5ccccc5)c4n3)cc2)CC1` [Preparative Example 8C], the IC50 against CLK4 (h), against TRKA(h) and against FLT3(h) was less than 5 µM throughout.
Turning to `Cc1cc(Nc2cc(-c3ccccc3)nc3ccoc23)sn1` [Preparative Example 17E], the half-maximal inhibitory concentration (IC50) against TRKA(h) and on FLT3(h) was less than 5 µM in each case.
For the compound `Cn1cc(-c2ccc3occ(-c4ccc5ccccc5c4)c3n2)cn1` [Preparative Example 7A], the IC50 against CLK4 (h) is less than 0.1 µM; against HIPK2(h), less than 1 µM; on HIPK1(h), less than 1 µM; against HIPK3(h), less than 1 µM; on CLK2 (h), less than 0.1 µM.
